From US10040836B2, “Peptides for the treatment of neurodegenerative diseases” (Ramot at Tel-Aviv University Ltd., priority 2012, dated 2018)
Where a SMILES comes first, the peptide text is derived from it. Where no end group is shown, it is not given here. The star is where a group is joined. Cbz = O=C(OCc1ccccc1)*; CH2F = FC*

Legend:
[1] = target: T1, caspase-6 (Homo sapiens, UniProt P55212); assay: Purified caspase-6 activity assay (Caspase-Glo 6, Z-VEID-aminoluciferin); format: biochemical
T1 construct: purchased Enzo life-science
T1 sequence (P55212 24-293): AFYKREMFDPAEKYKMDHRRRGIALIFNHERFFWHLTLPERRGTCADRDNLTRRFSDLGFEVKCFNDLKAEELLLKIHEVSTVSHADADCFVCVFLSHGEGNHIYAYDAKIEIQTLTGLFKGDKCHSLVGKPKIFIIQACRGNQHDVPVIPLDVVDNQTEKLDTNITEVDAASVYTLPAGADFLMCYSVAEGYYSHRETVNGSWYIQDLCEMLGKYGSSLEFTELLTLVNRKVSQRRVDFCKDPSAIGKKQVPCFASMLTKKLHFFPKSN
Description: For determining ED11 caspase-6 inhibition ability, the Caspase-Glo® 6 assay (Promega) was carried out according to the manufacturer's instructions. Briefly, 0.1 U/ml Purified caspase-6 (Enzo life-science) was incubated with 0-12 μM Z-VEID-aminoluciferin in the presence of 10 μM ED11 or DMSO as vehicle control, and luminescent signal of released aminoluciferin (as RLU) was detected using Synergy HT multi-mode micro-plate reader (Bio-Tek). For Michaelis-Menten curve plotting, initial velocity was calculated using linear regression of the progress curve linear segment, adjusted to RLU/min. For caspase-3 inhibition capability, caspase-3 inhibitor drug detection kit (Abcam) was performed according to the manufacturer's instructions.
EDII inhibits caspase-6 activity in a purified caspase-6 activity assay: To test the peptide ability to compete on caspase-6 activity, purified caspase-6 and Z-VEID-Aminoluciferin (Caspase-6 Glo™, Promega) were incubated with ED11, and bioluminescence signal was detected using SynergyHT microplate reader (FIGS. 1A-1D).

[2] = target: T2, caspase-3 (Homo sapiens, UniProt P42574); assay: Fluorescent caspase-3 inhibition assay (caspase-3 inhibitor drug detection kit); format: biochemical; settings: purified caspase-3/caspase-6 assay, FIGS. 1E-1F
T2 construct: purchased Abcam
T2 sequence (P42574 29-277): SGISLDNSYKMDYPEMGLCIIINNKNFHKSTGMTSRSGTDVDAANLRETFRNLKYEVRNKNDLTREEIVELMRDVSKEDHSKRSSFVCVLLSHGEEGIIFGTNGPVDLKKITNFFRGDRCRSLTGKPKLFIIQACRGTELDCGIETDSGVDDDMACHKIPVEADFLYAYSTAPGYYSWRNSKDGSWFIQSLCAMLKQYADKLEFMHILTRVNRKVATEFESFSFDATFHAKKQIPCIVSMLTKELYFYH

[3] = tested on: SH-SY5Y cells; assay: Cell viability, proliferation and cell cycle in a basal state; format: cell-based, Human; settings: up to 50 μM
Description: SH-SY5Y cells were pre-incubated with 25 μM ED11 for one hour. Then, 10 μM 5-bromo-2-deoxyuridine (BrdU) was added for 2 hours. Medium was discarded and cells were fixed with 70% ethanol. DNA denaturation was conducted with 1.5 M HCl exposure for 30 minutes. FITC conjugated anti-BrdU antibody was used to mark incorporated BrdU. DNA staining was performed by using propidium iodide (PI). 15,000 cells per sample were read using FACS-Calibur flow cytometer, and cell-cycle analysis was conducted after doublet discrimination.
To induce exogenous glutamate toxicity, SH-SY5Y cell were incubated with the indicated concentrations of L-Glutamate (Sigma) for 16 hours, in the presence of 20 μM ED11 or vehicle control. For the In-cell caspase-6 activity assay, green FLICA caspase-6 assay (ImmunoChemistry Technologies) was conducted according to the manufacturer's instructions. Briefly, cells were lifted by trypsin and adjusted to 1.5×10^6 cells/ml. Cells were incubated with FAM-VEID-FMK for 1 hour in 37° C., washed with PBS and 5,000 cells per sample were analyzed by flow-cytometry. For apoptosis detection, Annexin V-FITC apoptosis detection assay (Abcam) was conducted according to the manufacturer's instructions. Briefly, 2×10^5 cells were incubated with Annexin V-FITC and PI for 5 minutes in R.T, and 15,000 cells per sample were analyzed by flow-cytometry. For viability assessment, medium was depleted and washed twice with PBS, and alamar-blue dye (AbD serotec, 1/10 in culture medium) was added to the cells, as instructed by the manufacturer. Fluorescence was monitored at 530-560 nm excitation wavelength and 590 nm emission wavelength, and viability was calculated as percentage of untreated control.

Compound: COC(=O)C[C@H](NC(=O)[C@H](C)NC(=O)[C@@H](NC(=O)OCc1ccccc1)C(C)C)C(=O)CF [Z-VAD-FMK, reference compound] (Cbz-Val-Ala-Asp(OMe)-CH2F)
- caspase-6 activity, specificity experiment ([1]; purified caspase-3/caspase-6 assay, FIGS. 1E-1F): inhibits activity of caspase-3 and caspase-6
- caspase-3 activity, specificity experiment [2]: inhibits activity of caspase-3 and caspase-6

Compound: GRKKRRQRRRPPQSSEIVLDGTDN [ED11]
- cell proliferation (BrdU) [3]: no effect
- cell viability (ALAMAR blue) ([3]; 48 hours incubation): no effect
- cell cycle state ([3]; O.N. incubation): no effect

Compound: modified peptide: ED11 with three of the amino acids in positions 17, 20 and 23 changed to Histidine (H) (GRKKRRQRRRPPQSSEHVLHGTHN)
- caspase-6 activity ([1]; purified caspase-6, Z-VEID-aminoluciferin, 10 μM ED11): ineffective and didn't inhibit the caspase 6 activity
